From the NIST ThermoML archive (doi:10.1021/je900888e)

Assay: mn = molality of the nth substance listed, in mol/kg
Details: 101 kPa, Liquid; for speed of sound: Pulse-echo method

CCCC[P+](CCCC)(CCCC)CCCC.[Br-] [tetrabutylphosphonium bromide] + CCCCO
Details | mass density, 288.15 K [kg/m3] | mass density, 293.15 K [kg/m3] | mass density, 298.15 K [kg/m3] | mass density, 303.15 K [kg/m3] | mass density, 308.15 K [kg/m3] | mass density, 313.15 K [kg/m3] | mass density, 323.15 K [kg/m3] | speed of sound, 298.15 K [m/s]
m1 = 0.009722 | 813.972 | 810.179 | 806.37 | 802.533 | 798.665 | 794.76 | 786.817 | –
m1 = 0.01455 | 814.314 | 810.525 | 806.716 | 802.882 | 799.017 | 795.113 | 787.175 | –
m1 = 0.01936 | 814.655 | 810.867 | 807.061 | 803.227 | 799.366 | 795.464 | 787.531 | 1240.1
m1 = 0.0242 | 814.996 | 811.209 | 807.404 | 803.574 | 799.712 | 795.815 | 787.89 | –
m1 = 0.02918 | 815.348 | 811.563 | 807.767 | 803.93 | 800.07 | 796.175 | 788.253 | –
m1 = 0.0369 | 815.894 | 812.109 | 808.382 | 804.48 | 800.621 | 796.727 | 788.815 | 1241
m1 = 0.05364 | 817.07 | 813.293 | 809.495 | 805.673 | 801.825 | 797.943 | 790.046 | 1242
m1 = 0.07129 | 818.321 | 814.549 | 810.756 | 806.941 | 803.095 | 799.213 | 791.333 | 1243
m1 = 0.09251 | 819.818 | 816.049 | 812.265 | 808.455 | 804.62 | 800.743 | 792.887 | 1244.1
m1 = 0.1101 | 821.058 | 817.297 | 813.514 | 809.71 | 805.879 | 802.009 | 794.162 | 1245.1
m1 = 0.1395 | 823.126 | 819.37 | 815.598 | 811.804 | 807.981 | 804.127 | 796.295 | 1246.7
m1 = 0.1776 | 825.836 | 822.089 | 818.326 | 814.54 | 810.729 | 806.888 | 799.08 | 1248.8
m1 = 0.218 | 828.688 | 824.949 | 821.197 | 817.424 | 813.625 | 809.794 | 802.026 | 1251.1
m1 = 0.2537 | 831.238 | 827.51 | 823.765 | 820.001 | 816.21 | 812.388 | 804.641 | 1252.9
m1 = 0.2955 | 834.232 | 830.511 | 826.778 | 823.022 | 819.242 | 815.431 | 807.714 | 1255.3
m1 = 0.3323 | 836.873 | 833.16 | 829.434 | 825.687 | 821.922 | 818.127 | 810.433 | 1257.1
